Where “and” joins values, the source holds several entries; their conditions need not be identical. Identical values can stand only once.
Tests used:
[1] = Blood-brain barrier permeability by LC/MS-MS after carotid artery injection; format: in vivo, mouse; conditions: for concentration at 5 min: male, Casp6-expressing transgenic mice, mouse, in vivo
Method: Only males were used and littermates from each genotype (wild type (WT)/WT, WT/Cre, & knock-in (KI/)Cre) were tested together. The experimenter was blind to genotype and treatment groups. Mice were administered 20 mg/kg NWL-117 or physiological saline (0.9% NaCl) by intraperitoneal injections two times 48 h apart. […] Blood brain barrier permeability of NWL-117 caspase inhibitor: Briefly, 18–22 month old Casp6 mice were anesthetised with isoflurane, warmed with a heating blanket, and their physiological vitals (heart rate, body temperature, and respiration) monitored. The skin over the mouse’s neck was shaved, xylocaine applied, and an incision was made along the midline. Under a surgical microscope, the right carotid artery was gently separated from surrounding tissue. Two suture threads were placed at the proximal and distal ends of the carotid, and a small incision was made along the carotid wall. A micro-catheter (attached to a 1 ml syringe controlled by a micropump) was inserted and pushed to the entrance of the internal carotid artery. The catheter was secured in place using suture thread. NWL-117 (20 mg/kg) was infused via the micro-catheter using a pump set at 50 μL/min (total volume between 64 μL and 130 μL). After 5 min, blood was collected by intra-cardiac puncture, the mouse was perfused through the heart with ice cold saline for 2–3 min. The brain was removed and hippocampi were dissected and frozen on dry ice and stored. Samples were sent to the Biopharmacy platform at the University of Montreal (Quebec, Canada) for liquid chromatography and tandem mass spectrometry analysis. The integrity of the blood-brain barrier was confirmed by injecting 3% Evan’s blue solution in 20 month old Casp6 mice. Mouse cognitive analysis by novel object recognition: Mice were handled during 5 min for one week prior to behavioral tests. Novel object recognition (NOR) task was administered in three phases: habituation, familiarization (pre-exposure), and test phase. For habituation, mice were placed in the NOR box (80 cm x 80 cm, Stoelting Co, Wood Dale, IL, USA) for 5 min. After 24 h, the pre-exposure phase was initiated by allowing the animals to explore two identical objects inside the NOR box. Then, following a 2 h gap, mice were re-introduced to the NOR box which now contained a familiar and a novel object. The position of the novel object was counterbalanced between animals to avoid any bias related to a preference in the location of the new object and the use of potential confounding spatial cues. The objects were located in the middle of the NW and SE quadrants of the box, equidistantly from the box corners and from each other. The mice were placed in the middle of the SW quadrant. Washing the box and objects with 70% ethanol eliminated odour cues. The number of times touching each object was manually recorded, while the total distance, percent time moving, and number of entries into virtual cells were recorded using the HVS 2100 automated video tracking system (HVS Image, Buckingham, UK). Animals whose exploration was considered insufficient to allow recognition (<10 s per object) during the familiarization phase were excluded from analysis. Different object sets were used in the pre- and post-tests. Immunohistochemistry on mouse brain slices: Following behavioural analysis, animals were anaesthetized under isoflurane and perfused intracardially with ice cold saline for 7 min and 4% paraformaldehyde for 20 min. […]

[2] = biological target: T1, recombinant Caspase-4 (Homo sapiens, UniProt P49662); assay: Caspase Inhibitor Drug Screening Kit (BioVision), LEVD-AFC substrate; format: biochemical; conditions: not active site titrated
T1 construct: purchased BioVision
T1 sequence (P49662 81-377): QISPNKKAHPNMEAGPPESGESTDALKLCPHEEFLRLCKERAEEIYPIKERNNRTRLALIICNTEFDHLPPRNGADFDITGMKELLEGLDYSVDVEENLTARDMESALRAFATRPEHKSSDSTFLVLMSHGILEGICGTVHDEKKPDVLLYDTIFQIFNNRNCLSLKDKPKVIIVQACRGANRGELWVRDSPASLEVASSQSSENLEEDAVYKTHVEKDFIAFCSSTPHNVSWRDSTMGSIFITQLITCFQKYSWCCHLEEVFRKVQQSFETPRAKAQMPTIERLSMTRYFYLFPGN
Method: (§1) The half-maximal inhibitory concentrations (IC50) for NWL inhibitors (Patent publication # WO/2009/140765, WO/2010/133000, and WO/2012/140500) was determined by incubating 0 to 20 μM NWL-117 and NWL-154 with 20 nM of active site-titrated Casp6 in SB at room temperature for 5 minutes. Then, 10 μM Ac-VEID-AFC was added and fluorescence measured for 20 min at 37 °C as described above. New World Laboratories performed the IC50 determination for NWL inhibitors dissolved in dimethyl sulfoxide (DMSO) against recombinant Casp1-10 using the Caspase Inhibitor Drug Screening Kits (BioVision, San Francisco, CA) following the manufacturer’s instructions and the preferred substrates for the caspases (Caspase-1: WAD-AFC, Caspase-2: VDVAD-AFC, Caspase-3: DEVD-AFC, Caspase-4: LEVD-AFC, Caspase-5: WEHD-AFC, Casp6:VEID-AFC, Caspase-7: DEVD-AFC, Caspase-8: IETD-AFC, Caspase-9: LEHD-AFC, Caspase-10: AEVD-AFC). In transfected HCT116 cells, 0 to 100 μM NWL inhibitors were added in the culture media and left on the cells for 2 h. Cells were washed once with 1 mL ice-cold PBS, incubated on ice for 5 min with 200 μL cell lysis buffer (CLB) (50 mM HEPES, 0.1% CHAPS, 0.1 mM EDTA), and gently scraped off. Protein concentrations were determined by Bradford assay (BioRad, Mississauga, ON, CA) by measuring the absorbance at 595 nm using the BioTek Synergy H4 plate reader. […]

[3] = biological target: T2, recombinant Caspase-2 (Homo sapiens, UniProt P42575); assay: Caspase Inhibitor Drug Screening Kit (BioVision), VDVAD-AFC substrate; format: biochemical; conditions: not active site titrated
T2 construct: purchased BioVision
T2 sequence (P42575 whole entry): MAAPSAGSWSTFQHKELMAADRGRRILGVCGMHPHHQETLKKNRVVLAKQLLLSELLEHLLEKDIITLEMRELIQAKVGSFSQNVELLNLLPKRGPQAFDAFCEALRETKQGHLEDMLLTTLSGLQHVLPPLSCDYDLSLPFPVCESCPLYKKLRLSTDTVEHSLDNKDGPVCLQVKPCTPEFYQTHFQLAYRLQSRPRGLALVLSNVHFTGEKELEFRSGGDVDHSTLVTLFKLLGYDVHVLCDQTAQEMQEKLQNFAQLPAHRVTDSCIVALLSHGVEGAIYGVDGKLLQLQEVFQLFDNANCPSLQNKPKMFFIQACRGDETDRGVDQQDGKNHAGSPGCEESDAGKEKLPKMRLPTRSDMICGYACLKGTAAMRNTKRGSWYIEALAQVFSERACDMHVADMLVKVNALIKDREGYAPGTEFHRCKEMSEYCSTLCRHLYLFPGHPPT
Method: as §1

[4] = test system: mice; assay: One month treatment toxicity in mice (pathology report); format: in vivo, mouse; conditions: one month treatment (Additional file 1)
Method: Casp6 transgenic mouse model: All animal procedures followed the Canadian Council on Animal Care guidelines and were approved by the McGill Animal care committees. Sixteen to 20 month old C57BL/6 J mice were bred and aged in the pathogen-free Goodman Cancer Research Centre Mouse Transgenic Facility at McGill University. Mice were housed in a temperature-controlled room at 22 °C and were kept on a 12 h light/dark cycle. Food and water were available at libitum. Casp6 overexpressing mice (KI/Cre) express Casp6p20p10 under the CAG promoter (CMV immediate early enchancer/chicken β-actin promoter fusion) in the CA1 pyramidal cell layer of the hippocampus under the control of calmodulin kinase IIa (CAMKIIa)-regulated Cre expression.
Additional file 1: Pathology report. Contains pharmacokinetic and toxicological analysis of CD-1 mice treated with NWL-117 for 28 days every 3 days. (PDF 3742 kb) Additional file 2: Figures S1-S4. Contains additional information to complement Figs. 3, 4, and 6 of the manuscript. (PDF 463 kb)

[5] = Casp6 mice, 20 mg/kg carotid artery injection, 5 min, one value per animal, 20 mg/kg

SMILES | Hippocampus concentration [1, 5] | Plasma concentration [1, 5] | Ratio of [hippocampal]/[plasma] [1, 5] | concentration at 5 min [1] | concentration at 5 min ([1]; 20 mg/kg) | IC50 [2] | IC50 [3] | toxicity after one month treatment [4]
CCC(C)[C@H](NC(=O)[C@H](CCC(=O)O)NC(=O)[C@@H](NC(=O)OCc1ccccc1)C(C)C)C(=O)N[C@H](/C=C/S(C)(=O)=O)CC(=O)O (stereo partly shown) [NWL-117] | 193 nM and 816 nM and 67.9 nM and 356 nM and 879 nM | 48.521 µM and 3.416 µM and 8.998 µM and 7.408 µM and 25.425 µM | 0.004 and 0.239 and 0.008 and 0.048 and 0.035 | 3.4 to 48 µM | 0.0679 to 0.879 µM | 380 nM | > 100000 nM | No obvious toxicity
CCC(C)[C@H](NC(=O)[C@H](CCC(=O)O)NC(=O)[C@@H](NC(=O)OCc1ccccc1)C(C)C)C(=O)N[C@H](/C=C(\Cl)S(C)(=O)=O)CC(=O)O (stereo partly shown) [NWL-154] | – | – | – | – | – | 1800 nM | > 100000 nM | –
